{"source": "patent EP0792649A1", "about": "“Treatment of sleep disorders” (ELI LILLY AND COMPANY, priority 1996, dated 1997)", "format_in_all_cases": "in vivo, Sprague-Dawley rats", "key": {"NE": {"system": "NE", "experiment": "Microdialysis assays of monoamines: NE level in hypothalamus dialysate of conscious rats", "procedure": "(§1) The tests were carried out as follows.\n(§2) Sprague-Dawley rats (Harlan or Charles River) weighing 270-300 grams were surgically implanted with microdialysis probes under chloral hydrate/pentobarbital anesthesia (170 and 36 mg/kg i.p. in 30% propylene glycol, 14% ethanol) (Perry and Fuller, Effect of fluoxetine on serotonin and dopamine concentration in rat hypothalamus after administration of fluoxetine plus L-5-hydroxytryptophan, Life Sci., 50, 1683-90 (1992)). A David Kopf stereotaxic instrument was used to implant the probe unilaterally in the hypothalamus at coordinates rostral -1.5 mm, lateral -1.3 mm, and ventral -9.0 mm (Paxinos and Watson, 1986). After a 48 hour recovery period, rats were placed in a large plastic bowl with a mounted liquid swivel system (CMA/120 system for freely moving animals, Bioanalytical Systems, West Lafayette, IN). Filtered artificial cerebrospinal fluid (CSF) (150 mM NaCl, 3.0 mM KCl, 1.7 mM CaCl2, and 0.9 mM MgCl2) was perfused through the probe at a rate of 1.0 µl/min. The output dialysate line was fitted to a tenport HPLC valve with a 20 µl loop. At the end of each 30 minute sampling period, dialysate collected in the loop was injected on an analytical column (Spherisorb 3 µ ODS2, 2X150 mm, Keystone Scientific).\n(§3) The method used to measure monoamines was as described by Perry and Fuller (1993). Briefly, dialysate collected in the 20 µl loop was assayed for 5-HT, NE and DA. The 20 µl injection went onto the column with a mobile phase which resolved NE, DA, and 5-HT: 75 mM potassium acetate, 0.5 mM ethylenediaminetetraacetic acid, 1.4 mM sodium octanesulfonic acid and 8% methanol, pH 4.9. The mobile phase for the amine column was delivered with a flow programmable pump at an initial flow rate of 0.2 ml/min increasing to 0.3 ml/min at 5 min then decreasing back to 0.2 ml/min at 26 min with a total run time of 30 min. Flow programming was used to elute the 5-HT within a 25 min time period. The electrochemical detector (EG&G, Model 400) for the amine column was set at a potential of 400 mV and a sensitivity of 0.2 nA/V. The data was collected and analyzed with a Hewlett-Packard HP1000 chromatography system which measured peak heights and calculated sample concentrations. Basal levels were measured for at least 90 minutes prior to drug administration.\n(§4) Extracellular levels of the amines in microdialysates were calculated by comparing peak heights with those of 50 pmole standards. The mean value of the four samples immediately preceding drug administration served as the basal level for each experiment and data was converted to percent of basal. Paired t-tests were used to compare the mean of the basal values from the time point immediately preceding drug administration to those of each time point thereafter.\n(§5) The rats were prepared as described above, and the indole was administered subcutaneously at 3 mg/kg 100 minutes after the start of the experiment. Fluoxetine was administered intraperitoneally at 10 mg/kg, together with a second dose of the indole at 3 mg/kg, 210 minutes after the start of the experiment. Each data point reported here represents a single animal.\n(§6) The results are shown below as percent of baseline of the three monoamines, at various times after the start of the experiment. Each data point represents the average of three or more animals.\n(§7) This test was carried out as described in Test 1, using 4-(2-hydroxy-3-cyclohexylaminopropoxy)indole, maleate, at 3 mg/kg administered at 120 minutes, and (+)-duloxetine, hydrochloride, at 4 mg/kg administered with a second dose of the indole at 3 mg/kg, at 270 minutes. Results are reported as in Test 2 above. The 5-HT results are the average of three animals, and the other results are the average of four animals."}, "DA": {"system": "DA", "experiment": "Microdialysis assays of monoamines: DA level in hypothalamus dialysate of conscious rats", "procedure": "as §1, §2, §3, §4, §5, §6, §7"}, "5-HT": {"system": "5-HT", "experiment": "Microdialysis assays of monoamines: 5-HT level in hypothalamus dialysate of conscious rats", "conditions": "for 5-HT level measured in the dialysate, % of baseline: Test 1, single animal; for 5-HT, percent of baseline: Test 3, average of three animals", "procedure": "as §1, §2, §3, §4, §5, §6, §7"}, "[1]": {"conditions": "Test 2, 120 min (time of first (-)-pindolol dose, 5 mg/kg), average of three or more animals"}, "[2]": {"conditions": "Test 2, 150 min, (-)-pindolol 5 mg/kg at 120 min, average of three or more animals"}, "[3]": {"conditions": "Test 2, 180 min, (-)-pindolol 5 mg/kg at 120 min, average of three or more animals"}, "[4]": {"conditions": "Test 2, 210 min, (-)-pindolol 5 mg/kg at 120 min, average of three or more animals"}, "[5]": {"conditions": "Test 3, 120 min (time of first indole dose, 3 mg/kg), average of four animals"}, "[6]": {"conditions": "Test 3, 150 min, the indole 3 mg/kg at 120 min, average of four animals"}, "[7]": {"conditions": "Test 3, 180 min, the indole 3 mg/kg at 120 min, average of four animals"}, "[8]": {"conditions": "Test 3, 210 min, the indole 3 mg/kg at 120 min, average of four animals"}, "[9]": {"conditions": "Test 3, 240 min, the indole 3 mg/kg at 120 min, average of four animals"}, "[10]": {"conditions": "Test 3, 270 min, the indole 3 mg/kg at 120 min, average of four animals"}}}
{"smiles": "CC(C)NCC(O)COc1cccc2[nH]ccc12", "note": "(single isomer, unassigned; (-)) [(-)-pindolol, 4-(2-hydroxy-3-isopropylaminopropoxy)-indole]", "values": [{"measurement": "NE, percent of baseline", "setting": "NE; [1]", "value": 90, "unit": "%"}, {"measurement": "NE, percent of baseline", "setting": "NE; [2]", "value": 100, "unit": "%"}, {"measurement": "NE, percent of baseline", "setting": "NE; [3]", "value": 120, "unit": "%"}, {"measurement": "NE, percent of baseline", "setting": "NE; [4]", "value": 110, "unit": "%"}, {"measurement": "DA, percent of baseline", "setting": "DA; [1]", "value": 90, "unit": "%"}, {"measurement": "DA, percent of baseline", "setting": "DA; [2]", "value": 90, "unit": "%"}, {"measurement": "DA, percent of baseline", "setting": "DA; [3]", "value": 70, "unit": "%"}, {"measurement": "DA, percent of baseline", "setting": "DA; [4]", "value": 100, "unit": "%"}]}
{"smiles": "O=C(O)/C=C\\C(=O)O.OC(CNC1CCCCC1)COc1cccc2[nH]ccc12", "note": "(centres unmarked) [4-(2-hydroxy-3-cyclohexylaminopropoxy)indole, maleate]", "values": [{"measurement": "5-HT level measured in the dialysate, % of baseline", "setting": "5-HT; 210 min after start, the indole 3 mg/kg s.c. at 100 min", "value": "about 80%"}, {"measurement": "5-HT level measured in the dialysate, % of baseline", "setting": "5-HT; lowest level after the indole 3 mg/kg s.c. at 100 min", "value": "about 50%"}, {"measurement": "5-HT, percent of baseline", "setting": "5-HT; 120 min (time of first indole dose, 3 mg/kg)", "value": 90, "unit": "%"}, {"measurement": "5-HT, percent of baseline", "setting": "5-HT; 150 min, the indole 3 mg/kg at 120 min", "value": 130, "unit": "%"}, {"measurement": "5-HT, percent of baseline", "setting": "5-HT; 180 min, the indole 3 mg/kg at 120 min", "value": 130, "unit": "%"}, {"measurement": "5-HT, percent of baseline", "setting": "5-HT; 210 min, the indole 3 mg/kg at 120 min", "value": 80, "unit": "%"}, {"measurement": "5-HT, percent of baseline", "setting": "5-HT; 240 min, the indole 3 mg/kg at 120 min", "value": 90, "unit": "%"}, {"measurement": "5-HT, percent of baseline", "setting": "5-HT; 270 min, the indole 3 mg/kg at 120 min", "value": 80, "unit": "%"}, {"measurement": "NE level, relative to baseline", "setting": "NE; Test 1, by 210 min, the indole 3 mg/kg s.c. at 100 min, single animal", "value": "nearly to baseline"}, {"measurement": "NE level, % of baseline", "setting": "NE; Test 1, highest level after the indole 3 mg/kg s.c. at 100 min, single animal", "value": "about 180%"}, {"measurement": "NE, percent of baseline", "setting": "NE; [5]", "value": 100, "unit": "%"}, {"measurement": "NE, percent of baseline", "setting": "NE; [6]", "value": 160, "unit": "%"}, {"measurement": "NE, percent of baseline", "setting": "NE; [7]", "value": 140, "unit": "%"}, {"measurement": "NE, percent of baseline", "setting": "NE; [8]", "value": 140, "unit": "%"}, {"measurement": "NE, percent of baseline", "setting": "NE; [9]", "value": 130, "unit": "%"}, {"measurement": "NE, percent of baseline", "setting": "NE; [10]", "value": 150, "unit": "%"}, {"measurement": "DA level, % of baseline", "setting": "DA; Test 1, 120 min, the indole 3 mg/kg s.c. at 100 min, single animal", "value": "about 210%"}, {"measurement": "DA level, relative to baseline", "setting": "DA; Test 1, 210 min, the indole 3 mg/kg s.c. at 100 min, single animal", "value": "near baseline"}, {"measurement": "DA, percent of baseline", "setting": "DA; [5]", "value": 70, "unit": "%"}, {"measurement": "DA, percent of baseline", "setting": "DA; [6]", "value": 150, "unit": "%"}, {"measurement": "DA, percent of baseline", "setting": "DA; [7]", "value": 130, "unit": "%"}, {"measurement": "DA, percent of baseline", "setting": "DA; [8]", "value": 110, "unit": "%"}, {"measurement": "DA, percent of baseline", "setting": "DA; [9]", "value": 100, "unit": "%"}, {"measurement": "DA, percent of baseline", "setting": "DA; [10]", "value": 110, "unit": "%"}]}
